Consider five molecules from patent US20250019385A1, “SPIROCYCLIC ANNULATED 2-AMINO-3-CYANO THIOPHENES AND DERIVATIVES FOR THE TREATMENT OF CANCER” (Boehringer Ingelheim International GmbH, priority 2023, published 2025).

pIC50: −log10 of the molar value. Values after ≈ are worked out from the molar mass of the structure shown.

One may read the pIC50 as the IC50 on a negative log10 scale, so that one unit is a factor of ten. As a reminder, the solubility is the concentration that dissolves in the medium under given conditions.

In the first data set the target is KRAS (G12D)::SOS1 protein-protein interaction (Homo sapiens (Human), UniProt P01116, G12D). The data set is described as follows: KRAS::SOS1 AlphaScreen binding assay (KRAS G12D). As to conditions: GDP. The method, boiled down: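 AlphaScreen assay with KRAS G12D (1-169, 6His/avi-tagged, 10 nM), GST-SOS1 564-1049 (5 nM) and GDP (10 μM) in PBS, 0.1% BSA, 0.05% Tween 20; compound up to 100 μM top concentration, eleven fivefold dilutions in duplicate. After 30 min, glutathione acceptor and streptavidin donor beads (10 μg/mL each) were added and signal read after a further 60 min at room temperature in the dark; IC50 from 4-parameter logistic fit.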
KRAS (G12D)::SOS1 protein-protein interaction, sequence (P01116 other isoform, or with tags, fused parts or gaps G12D): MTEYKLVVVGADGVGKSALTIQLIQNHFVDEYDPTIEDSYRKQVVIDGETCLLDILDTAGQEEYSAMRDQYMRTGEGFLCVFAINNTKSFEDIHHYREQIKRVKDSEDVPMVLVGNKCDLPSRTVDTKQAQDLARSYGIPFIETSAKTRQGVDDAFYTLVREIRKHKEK
A general note: Bead proximity is the source of the signal in Alpha formats.
In the case of `CCn1c(=O)n([C@@H]2CCCOC2)c2nc(-c3onc4c3CCC[C@@]43CCCc4sc(N)c(C#N)c43)nc(OC[C@@]34CCCN3C[C@H](F)C4)c21` [I-33], the pIC50 was 6.90.
On the same count and under the same terms, as for `C[C@H](Oc1nc(-c2noc3c2CCC[C@@]32CCCc3sc(N)c(C#N)c32)nc2c1CN(C1COC1)C[C@]21CCOC1)[C@@H]1CCCN1C` [II-12], the figure is 9.00; as for `C[C@H](Oc1nc(-c2onc3c2CCC[C@@]32CCCc3sc(N)c(C#N)c32)nc2c1n(C)c(=O)n2[C@@H]1CCOC1)C12CCCN1CCC2` [I-25], 8.70.
`CCn1c(=O)n([C@@H]2CCCOC2)c2nc(-c3onc4c3CCC[C@@]43CCCc4sc(N)c(C#N)c43)nc(O[C@@H](C)C34CCCN3CCC4)c21` [I-36] had a pIC50 of 8.70.
On the same count and under the same terms, as for `C[C@H](Oc1nc(-c2onc3c2CCC[C@@]32CCCc3sc(N)c(C#N)c32)nc2c1ncn2[C@@H]1CCOC1)[C@@H]1CCCN1C` [I-38], the figure is 8.70.

Tested on in the next data set: not listed separately
Nature of the data set: Solubility measurement (DMSO solution precipitation method). Type of data set: physicochemical. Particulars: aqueous buffer, kinetic from dmso stock, McIlvaine buffer pH 4.5, 24 h, read-out: solubility pH 4.5. The method in brief: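 A 10 mM DMSO stock was diluted to 250 μM final in McIlvaine buffer at pH 4.5 or 6.8, then shaken 24 h at ambient temperature. After filtering off precipitate, filtrate concentration was quantified by LC-UV against a fully dissolved reference in acetonitrile/water (1:1).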
Consider `CCn1c(=O)n([C@@H]2CCCOC2)c2nc(-c3onc4c3CCC[C@@]43CCCc4sc(N)c(C#N)c43)nc(OC[C@@]34CCCN3C[C@H](F)C4)c21` [I-33], for which the solubility at 24 h was more than 163 µg/mL.
Same read-out and setting: as for `C[C@H](Oc1nc(-c2noc3c2CCC[C@@]32CCCc3sc(N)c(C#N)c32)nc2c1CN(C1COC1)C[C@]21CCOC1)[C@@H]1CCCN1C` [II-12], the figure is more than 152 µg/mL; as for `C[C@H](Oc1nc(-c2onc3c2CCC[C@@]32CCCc3sc(N)c(C#N)c32)nc2c1n(C)c(=O)n2[C@@H]1CCOC1)C12CCCN1CCC2` [I-25], more than 155 µg/mL; as for `CCn1c(=O)n([C@@H]2CCCOC2)c2nc(-c3onc4c3CCC[C@@]43CCCc4sc(N)c(C#N)c43)nc(O[C@@H](C)C34CCCN3CCC4)c21` [I-36], 135 µg/mL (≈ 197 µM).
On the same count and under the same terms, next, `C[C@H](Oc1nc(-c2onc3c2CCC[C@@]32CCCc3sc(N)c(C#N)c32)nc2c1ncn2[C@@H]1CCOC1)[C@@H]1CCCN1C` [I-38]: more than 144 µg/mL.

Staying with this data set, now noted: aqueous buffer, kinetic from dmso stock, McIlvaine buffer pH 6.8, 24 h, read-out: solubility pH 6.8.
As to `CCn1c(=O)n([C@@H]2CCCOC2)c2nc(-c3onc4c3CCC[C@@]43CCCc4sc(N)c(C#N)c43)nc(OC[C@@]34CCCN3C[C@H](F)C4)c21` [I-33], the solubility at 24 h came out at 8 µg/mL (≈ 11.6 µM).
As to `C[C@H](Oc1nc(-c2noc3c2CCC[C@@]32CCCc3sc(N)c(C#N)c32)nc2c1CN(C1COC1)C[C@]21CCOC1)[C@@H]1CCCN1C` [II-12], the solubility at 24 h is more than 140 µg/mL.
As to `C[C@H](Oc1nc(-c2onc3c2CCC[C@@]32CCCc3sc(N)c(C#N)c32)nc2c1n(C)c(=O)n2[C@@H]1CCOC1)C12CCCN1CCC2` [I-25], the solubility at 24 h is more than 154 µg/mL.
The same measure, in the same setting: next, `CCn1c(=O)n([C@@H]2CCCOC2)c2nc(-c3onc4c3CCC[C@@]43CCCc4sc(N)c(C#N)c43)nc(O[C@@H](C)C34CCCN3CCC4)c21` [I-36]: 94 µg/mL (≈ 137 µM).
The same measure, in the same setting: next, `C[C@H](Oc1nc(-c2onc3c2CCC[C@@]32CCCc3sc(N)c(C#N)c32)nc2c1ncn2[C@@H]1CCOC1)[C@@H]1CCCN1C` [I-38]: more than 139 µg/mL.

For another data set, the system named is NCI-H358 cells. The data set is described as follows: NCI-H358 CTG proliferation assay (120 h) (NSCLC, G12C). Type of data set: cell-based. Particulars: Homo sapiens. The method, boiled down:
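Cells seeded at 200 per well in RPMI-1640 with 10% FCS, left overnight, then treated with a logarithmic dose series in duplicate for 120 h. Viability measured by CellTiter-Glo luminescence as percent of DMSO controls; IC50 from four-parameter non-linear regression.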
On to `CCn1c(=O)n([C@@H]2CCCOC2)c2nc(-c3onc4c3CCC[C@@]43CCCc4sc(N)c(C#N)c43)nc(OC[C@@]34CCCN3C[C@H](F)C4)c21` [I-33], for which the pIC50 is 6.04.
`C[C@H](Oc1nc(-c2noc3c2CCC[C@@]32CCCc3sc(N)c(C#N)c32)nc2c1CN(C1COC1)C[C@]21CCOC1)[C@@H]1CCCN1C` [II-12]: the pIC50 was 8.40.
On the same count and under the same terms, as for `C[C@H](Oc1nc(-c2onc3c2CCC[C@@]32CCCc3sc(N)c(C#N)c32)nc2c1n(C)c(=O)n2[C@@H]1CCOC1)C12CCCN1CCC2` [I-25], the figure is 8.22; as for `CCn1c(=O)n([C@@H]2CCCOC2)c2nc(-c3onc4c3CCC[C@@]43CCCc4sc(N)c(C#N)c43)nc(O[C@@H](C)C34CCCN3CCC4)c21` [I-36], 7.42; as for `C[C@H](Oc1nc(-c2onc3c2CCC[C@@]32CCCc3sc(N)c(C#N)c32)nc2c1ncn2[C@@H]1CCOC1)[C@@H]1CCCN1C` [I-38], 8.05.

A further data set concerns LOVO cells. Nature of the data set: LOVO CTG proliferation assay (120 h) (CRC, G13D). Type of data set: cell-based. As to conditions: Homo sapiens. The method in brief: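 Cells seeded at 1000/well in DMEM + 10% FCS, dosed next day with a logarithmic compound series, technical duplicates, for 120 h. Viability by CellTiter-Glo luminescence as percent of DMSO control; IC50 from four-parameter non-linear regression.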
For the molecule `CCn1c(=O)n([C@@H]2CCCOC2)c2nc(-c3onc4c3CCC[C@@]43CCCc4sc(N)c(C#N)c43)nc(OC[C@@]34CCCN3C[C@H](F)C4)c21` [I-33], the pIC50 is 6.05.
The same measure, in the same setting: next, `C[C@H](Oc1nc(-c2noc3c2CCC[C@@]32CCCc3sc(N)c(C#N)c32)nc2c1CN(C1COC1)C[C@]21CCOC1)[C@@H]1CCCN1C` [II-12]: 7.15; `C[C@H](Oc1nc(-c2onc3c2CCC[C@@]32CCCc3sc(N)c(C#N)c32)nc2c1n(C)c(=O)n2[C@@H]1CCOC1)C12CCCN1CCC2` [I-25]: 7.26; `CCn1c(=O)n([C@@H]2CCCOC2)c2nc(-c3onc4c3CCC[C@@]43CCCc4sc(N)c(C#N)c43)nc(O[C@@H](C)C34CCCN3CCC4)c21` [I-36]: 8.05.
Still for that read-out and setting: as for `C[C@H](Oc1nc(-c2onc3c2CCC[C@@]32CCCc3sc(N)c(C#N)c32)nc2c1ncn2[C@@H]1CCOC1)[C@@H]1CCCN1C` [I-38], the figure is 6.94.

Tested on in the next data set: not listed separately
Nature of the data set: Plasma protein binding assay (PPB), equilibrium dialysis. Particulars: bovine, 10% FCS in PBS, read-out: PPB 10% FCS (% fu). The class given is in vitro ADME. The method in brief: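 Compound at 1-10 μmol/L in 10% FCS in PBS was dialysed against PBS (with or without dextran) across a 5-10 kg/mol cut-off membrane for 3-5 h at 37° C. Both chambers were protein-precipitated and compound was quantified by LC-MS. The unbound fraction was calculated from the serum-side and buffer-side concentrations.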
For orientation: In equilibrium dialysis only unbound substance equilibrates across the membrane.
Take `CCn1c(=O)n([C@@H]2CCCOC2)c2nc(-c3onc4c3CCC[C@@]43CCCc4sc(N)c(C#N)c43)nc(OC[C@@]34CCCN3C[C@H](F)C4)c21` [I-33]: the fraction unbound was found to be 0.02.
The same measure, in the same setting: next, `C[C@H](Oc1nc(-c2noc3c2CCC[C@@]32CCCc3sc(N)c(C#N)c32)nc2c1CN(C1COC1)C[C@]21CCOC1)[C@@H]1CCCN1C` [II-12]: 0.19; `C[C@H](Oc1nc(-c2onc3c2CCC[C@@]32CCCc3sc(N)c(C#N)c32)nc2c1n(C)c(=O)n2[C@@H]1CCOC1)C12CCCN1CCC2` [I-25]: 0.26; `CCn1c(=O)n([C@@H]2CCCOC2)c2nc(-c3onc4c3CCC[C@@]43CCCc4sc(N)c(C#N)c43)nc(O[C@@H](C)C34CCCN3CCC4)c21` [I-36]: 0.06.
Still for that read-out and setting: next, `C[C@H](Oc1nc(-c2onc3c2CCC[C@@]32CCCc3sc(N)c(C#N)c32)nc2c1ncn2[C@@H]1CCOC1)[C@@H]1CCCN1C` [I-38]: 0.34.
